In PMC11270923 (BMC Chemistry, 2024):

How the values were obtained:
[1] = Thermodynamic dissolution properties from Van't Hoff and Gibbs equations; type: physicochemical
Text: The Gibbs and […] equations were used to determine the thermodynamic parameters of dissolution. A mean harmonic temperature of 305.55 K was utilized for the calculations, which were based on a temperature range of 298.15 K to 313.15 K [35]. […] On the other hand, ΔHsolno can be calculated by plotting lnx1 versus 1/T-1/Thm which is called van’t Hoff plot:16 ΔHsolno=-R(∂lnx1/∂(1/T-1/Thm))P 17 ΔGsolno=-RThm×intercept
By solving Eqs. 16 and 17, we can determine the values of the parameters ΔHsolno and ΔGsolno . The standard molar entropy of dissolution, ΔSsolno , can then be calculated using the following equation [40–42]:18 ΔSsolno=ΔHsolno-ΔGsolno/Thm
The relative contributions of entropy and enthalpy to the standard molar Gibbs free energy of dissolution of ACP are explained by Eqs. 17, 18, as shown by the symbols ξH and ξTS , respectively:19 %ξH=ΔHsolno/ΔHsolno+TΔSsolno×100 20 %ξTS=TΔSsolno/ΔHsolno+TΔSsolno×100

[2] = 298.15 K, methanol + water, 0.1 methanol weight fraction; cited from earlier work
[3] = water+[DEA]La w3=0.0000, mean temperature 305.55 K
[4] = water+[DEA]La w3=0.0200, mean temperature 305.55 K
[5] = water+[DEA]La w3=0.0500, mean temperature 305.55 K
[6] = water+[DEA]La w3=0.0700, mean temperature 305.55 K
[7] = water+[DEA]La w3=0.1000, mean temperature 305.55 K
[8] = water+[DEA]La w3=0.1500, mean temperature 305.55 K
[9] = water+[DEA]La w3=0.2000, mean temperature 305.55 K
[10] = water+[MEA]La w3=0.0000, mean temperature 305.55 K
[11] = water+[MEA]La w3=0.0200, mean temperature 305.55 K
[12] = water+[MEA]La w3=0.0500, mean temperature 305.55 K
[13] = water+[MEA]La w3=0.0700, mean temperature 305.55 K
[14] = water+[MEA]La w3=0.1000, mean temperature 305.55 K
[15] = water+[MEA]La w3=0.1500, mean temperature 305.55 K
[16] = water+[MEA]La w3=0.2000, mean temperature 305.55 K
[17] = water+[TEA]La w3=0.0000, mean temperature 305.55 K
[18] = water+[TEA]La w3=0.0200, mean temperature 305.55 K
[19] = water+[TEA]La w3=0.0500, mean temperature 305.55 K
[20] = water+[TEA]La w3=0.0700, mean temperature 305.55 K
[21] = water+[TEA]La w3=0.1000, mean temperature 305.55 K
[22] = water+[TEA]La w3=0.1500, mean temperature 305.55 K
[23] = water+[TEA]La w3=0.2000, mean temperature 305.55 K

TMΔHsoln∘ [1, 3]: 2.289 kcal/mol
ΔGsoln∘ [1, 3]: 3.6702 kcal/mol
ΔHsoln∘ [1, 3]: 5.9591 kcal/mol
ξH [1, 3]: 72.250%
ξTS [1, 3]: 27.750%
TMΔHsoln∘ [1, 4]: 1.438 kcal/mol
ΔGsoln∘ [1, 4]: 3.489 kcal/mol
ΔHsoln∘ [1, 4]: 4.9264 kcal/mol
ξH [1, 4]: 77.411%
ξTS [1, 4]: 22.589%
TMΔHsoln∘ [1, 5]: 0.108 kcal/mol
ΔGsoln∘ [1, 5]: 3.3989 kcal/mol
ΔHsoln∘ [1, 5]: 3.5065 kcal/mol
ξH [1, 5]: 97.024%
ξTS [1, 5]: 2.976%
ΔGsoln∘ [1, 6]: 3.3511 kcal/mol
ΔHsoln∘ [1, 6]: 3.1637 kcal/mol
ξH [1, 6]: 94.407%
ξTS [1, 6]: 5.593%
TMΔHsoln∘ [1, 7]: 0.679 kcal/mol
ΔGsoln∘ [1, 7]: 3.2808 kcal/mol
ΔHsoln∘ [1, 7]: 3.9601 kcal/mol
ξH [1, 7]: 85.361%
ξTS [1, 7]: 14.639%
TMΔHsoln∘ [1, 8]: 0.123 kcal/mol
ΔGsoln∘ [1, 8]: 3.2333 kcal/mol
ΔHsoln∘ [1, 8]: 3.3559 kcal/mol
ξH [1, 8]: 96.472%
ξTS [1, 8]: 3.528%
TMΔHsoln∘ [1, 9]: 0.3011 kcal/mol
ΔGsoln∘ [1, 9]: 3.1683 kcal/mol
ΔHsoln∘ [1, 9]: 3.4692 kcal/mol
ξH [1, 9]: 92.015%
ξTS [1, 9]: 7.985%
TMΔHsoln∘ [1, 10]: 2.289 kcal/mol
ΔGsoln∘ [1, 10]: 3.6702 kcal/mol
ΔHsoln∘ [1, 10]: 5.9591 kcal/mol
ξH [1, 10]: 72.250%
ξTS [1, 10]: 27.750%
TMΔHsoln∘ [1, 11]: 1.168 kcal/mol
ΔGsoln∘ [1, 11]: 3.4405 kcal/mol
ΔHsoln∘ [1, 11]: 4.609 kcal/mol
ξH [1, 11]: 79.777%
ξTS [1, 11]: 20.223%
ΔGsoln∘ [1, 12]: 3.3752 kcal/mol
ΔHsoln∘ [1, 12]: 3.3439 kcal/mol
ξH [1, 12]: 99.076%
ξTS [1, 12]: 0.924%
ΔGsoln∘ [1, 13]: 3.2777 kcal/mol
ΔHsoln∘ [1, 13]: 2.9484 kcal/mol
ξH [1, 13]: 89.953%
ξTS [1, 13]: 10.047%
ΔGsoln∘ [1, 14]: 3.2139 kcal/mol
ΔHsoln∘ [1, 14]: 3.1785 kcal/mol
ξH [1, 14]: 98.898%
ξTS [1, 14]: 1.102%
TMΔHsoln∘ [1, 15]: 0.4615 kcal/mol
ΔGsoln∘ [1, 15]: 3.1248 kcal/mol
ΔHsoln∘ [1, 15]: 3.5863 kcal/mol
ξH [1, 15]: 88.600%
ξTS [1, 15]: 11.400%
TMΔHsoln∘ [1, 16]: 0.2928 kcal/mol
ΔGsoln∘ [1, 16]: 3.0667 kcal/mol
ΔHsoln∘ [1, 16]: 3.3595 kcal/mol
ξH [1, 16]: 91.982%
ξTS [1, 16]: 8.018%
TMΔHsoln∘ [1, 17]: 2.289 kcal/mol
ΔGsoln∘ [1, 17]: 3.6702 kcal/mol
ΔHsoln∘ [1, 17]: 5.9591 kcal/mol
ξH [1, 17]: 72.250%
ξTS [1, 17]: 27.750%
TMΔHsoln∘ [1, 18]: 1.658 kcal/mol
ΔGsoln∘ [1, 18]: 3.5837 kcal/mol
ΔHsoln∘ [1, 18]: 5.2416 kcal/mol
ξH [1, 18]: 75.970%
ξTS [1, 18]: 24.030%
TMΔHsoln∘ [1, 19]: 0.196 kcal/mol
ΔGsoln∘ [1, 19]: 3.5172 kcal/mol
ΔHsoln∘ [1, 19]: 3.713 kcal/mol
ξH [1, 19]: 94.992%
ξTS [1, 19]: 5.008%
TMΔHsoln∘ [1, 20]: 0.0473 kcal/mol
ΔGsoln∘ [1, 20]: 3.4422 kcal/mol
ΔHsoln∘ [1, 20]: 3.4895 kcal/mol
ξH [1, 20]: 98.659%
ξTS [1, 20]: 1.341%
TMΔHsoln∘ [1, 21]: 0.7775 kcal/mol
ΔGsoln∘ [1, 21]: 3.3774 kcal/mol
ΔHsoln∘ [1, 21]: 4.1549 kcal/mol
ξH [1, 21]: 84.235%
ξTS [1, 21]: 15.765%
TMΔHsoln∘ [1, 22]: 0.3346 kcal/mol
ΔGsoln∘ [1, 22]: 3.2775 kcal/mol
ΔHsoln∘ [1, 22]: 3.6121 kcal/mol
ξH [1, 22]: 91.522%
ξTS [1, 22]: 8.478%
TMΔHsoln∘ [1, 23]: 0.4285 kcal/mol
ΔGsoln∘ [1, 23]: 3.2144 kcal/mol
ΔHsoln∘ [1, 23]: 3.6429 kcal/mol
ξH [1, 23]: 89.476%
ξTS [1, 23]: 10.524%
SMILES: CC(=O)Nc1ccc(O)cc1 [ACP, Acetaminophen]
ACP solubility [2]: 2.65 × 10^–3 mole fraction
